# From US20260193221A1, “SOLID FORMS COMPRISING (5R,6S)-10,11-DIFLUORO-12-((2-FLUORO-4-IODOPHENYL)AMINO)-5,6-DIHYDROXY-4,5,6,7-TETRAHYDRO-1H-SPIRO[BENZO[B][1,5,4]OXATHIAZECINE-3,1'-CYCLOPROPANE] 2,2-DIOXIDE, AND COMPOSITIONS COMPRISING AND METHODS OF USING THE SAME” (PASITHEA THERAPEUTICS CORP., priority 2024, published 2026)
# Key:
# Assay type in all cases: physicochemical
# [1] = Mechanic properties (compression, dry grinding, wet granulation simulation)
# Procedure: Compression simulation experiments: about 20 mg of Form A was compressed for 5 minutes under 2 MPa, 5 MPa and 10 MPa with a hydraulic press. Potential form change and degree of crystallinity were evaluated by XRPD.
# Dry grinding simulation experiments: about 20 mg of Form A was ground manually with a mortar and a pestle for 5 min. Potential form change and degree of crystallinity were evaluated by XRPD.
# Wet granulation simulation experiments: water or ethanol was added drop-wisely to about 20 mg of Form A until the sample was wetted sufficiently. Wet sample was ground gently with in a mortar and a pestle for 5 min. Post granulation sample was dried under ambient condition for 10 min. Potential form change and degree of crystallinity were evaluated by XRPD.
# [2] = Hygroscopicity by DVS
# Procedure: Water sorption and desorption behavior Form A was investigated by DVS at 25° C. with a cycle of 40-0-95-0-40% RH. XRPD was measured after the DVS test to determine form change. […] The DVS test measured 0.4% water uptake from 40% to 80% RH, see FIG. 4.
# [3] = Solubility, Experiment 2 (target concentration 5 mg/mL)
# Procedure: Experiment 2: 5 mg of Form A and 5 mg of amorphous form were weighed into an 8 mL glass vial, respectively. 1 mL of solubility medium was added. Obtained suspensions/solutions were stirred at 37° C. at 400 rpm and sampled at 2 hours and at 24 hours. Obtained suspensions/solutions were filtered through a 0.45 μm PVDF membrane filter by centrifugation at 14,000 rpm and at 37° C. Filtrate were analyzed by HPLC and pH meter for solubility and pH value, respectively.
# [4] = Bulk stability; settings: 25° C./92.5% RH open, 40° C./75% RH open, 60° C. closed container; 1 week
# Procedure: Form A was placed at 25° C./92.5% RH in an open container, at 40° C./75% RH in an open container, and at 60° C. in a closed container for 1 week. Samples after the stress were characterized by XRPD and HPLC and inspected for color change.
# [5] = Solubility, Experiment 1 (target concentration 2 mg/mL); settings: for XRPD of residual solid / Solubility: 37° C.
# Procedure: Experiment 1: 5 mg of Form A and 5 mg of amorphous form were weighed into an 8 mL glass vial, respectively. 2.5 mL of solubility medium was added. Obtained suspensions/solutions were stirred at 37° C. at 400 rpm and sampled at 2 hours and at 24 hours. Obtained suspensions/solutions were filtered through a 0.45 μm PVDF membrane filter by centrifugation at 14,000 rpm and at 37° C. Filtrate were analyzed by HPLC and pH meter for solubility and pH value, respectively. Residual solids (wet cakes) from the 24 hours samples were also characterized by XRPD to determine physical form.
structure (smiles),measurement,setting,value
"O=S1(=O)Nc2c(cc(F)c(F)c2Nc2ccc(I)cc2F)OC[C@H](O)[C@H](O)CC12CC2 [Form A, (5R,6S)-10,11-difluoro-12-((2-fluoro-4-iodophenyl)amino)-5,6-dihydroxy-4,5,6,7-tetrahydro-1H-spiro[benzo[b][1,5,4]oxathiazecine-3,1′-cyclopropane]2,2-dioxide]",Crystallinity after compression (XRPD),"[1]; compressed 5 minutes under 2 MPa, 5 MPa and 10 MPa",No obvious decrease in crystallinity
same,Crystallinity after dry grinding (XRPD),[1]; ground manually with mortar and pestle for 5 min,Only a slight decrease in crystallinity
same,Crystallinity after wet granulation (XRPD),"[1]; water or ethanol, ground 5 min, dried 10 min",Only a slight decrease in crystallinity
same,Water uptake (DVS),"[2]; 25° C., from 40% to 80% RH",0.4%
same,Hygroscopicity,"[2]; DVS at 25° C., cycle 40-0-95-0-40% RH",slightly hygroscopic
same,XRPD after the DVS test (form change),[2]; after DVS cycle 40-0-95-0-40% RH,no form change
same,solubility at 24 h,"[3]; FeSSIF-v1, pH 5.0, 37 °C, pH 5, fessif, thermodynamic from solid, 24 h",3000 µg/mL
same,Solubility,"[3]; FeSSIF-v1, pH 5.0, 2 h, 37° C.",2400 µg/mL
same,Color change after stress,[4],no change of color was observed
same,Physical form after stress (XRPD),[4],Form A was confirmed
same,XRPD of residual solid,"[5]; Acetate buffer (50 mM), pH 4.5, 24 h",Form A
same,Solubility,"[5]; Acetate buffer (50 mM), pH 4.5, 24 h, target concentration 2 mg/mL",5.1 µg/mL
same,solubility at 2 h,"[5]; FaSSGF, pH 1.6, 37 °C, pH 1.6, fassgf or other biorelevant, thermodynamic from solid, pH 1.6, 2 h, target concentration 2 mg/mL",12 µg/mL
same,XRPD of residual solid,"[5]; FaSSGF, pH 1.6, 24 h",Form A
same,Solubility,"[5]; FaSSGF, pH 1.6, 24 h, target concentration 2 mg/mL",6.3 µg/mL
same,Solubility,"[5]; FaSSIF-v1, pH 6.5, 2 h, target concentration 2 mg/mL",270 µg/mL
same,XRPD of residual solid,"[5]; FaSSIF-v1, pH 6.5, 24 h",Form A
same,Solubility,"[5]; FaSSIF-v1, pH 6.5, 24 h, target concentration 2 mg/mL",330 µg/mL
same,solubility at 2 h,"[5]; FeSSIF-v1, pH 5.0, 37 °C, pH 5, fessif, thermodynamic from solid, FeSSIF-v1, pH 5.0, 2 h, target concentration 2 mg/mL",1800 µg/mL
same,solubility at 24 h,"[5]; FeSSIF-v1, pH 5.0, 37 °C, pH 5, fessif, thermodynamic from solid, FeSSIF-v1, pH 5.0, 24 h, target concentration 2 mg/mL",≥ 2000 µg/mL
same,solubility at 2 h,"[5]; HCl solution, pH 1.2, 37 °C, pH 1.2, simulated gastric fluid, thermodynamic from solid, pH 1.2, 2 h, target concentration 2 mg/mL",12 µg/mL
same,XRPD of residual solid,"[5]; HCl solution, pH 1.2, 24 h",Form A
same,Solubility,"[5]; HCl solution, pH 1.2, 24 h, target concentration 2 mg/mL",3.7 µg/mL
same,XRPD of residual solid,"[5]; Phosphate buffer (50 mM), pH 6.8, 24 h",Form A
same,Solubility,"[5]; Phosphate buffer (50 mM), pH 6.8, 24 h, target concentration 2 mg/mL",5.1 µg/mL
same,XRPD of residual solid,"[5]; Water, 24 h",Form A
same,solubility at 2 h,"[5]; acetate buffer (50 mM), pH 4.5, 37 °C, pH 4.5, aqueous buffer, thermodynamic from solid, pH 4.5, 2 h, target concentration 2 mg/mL",12 µg/mL
same,solubility at 2 h,"[5]; phosphate buffer (50 mM), pH 6.8, 37 °C, pH 6.8, aqueous buffer, thermodynamic from solid, pH 6.8, 2 h, target concentration 2 mg/mL",13 µg/mL
same,solubility at 2 h,"[5]; water, 37 °C, thermodynamic from solid, 2 h, target concentration 2 mg/mL",19 µg/mL
